{"source": "patent US8252273B2", "about": "“Ultraviolet absorber” (Lead Chemical Co., Ltd., priority 2007, dated 2012)", "key": {"[1]": {"assay": "Test Example 2: solubility test in organic solvents", "format": "physicochemical", "conditions": "for Amount of solvent required to dissolve 100 mg of sample / Concentration on dissolving 100 mg of sample: room temperature (23 to 25° C.)", "method": "Sample a: the O-tolyl-4-methoxycinnamate compound synthesized in Example 1\nSample b: the Compound of Reference Example 2\nThe amounts of various organic solvents capable of dissolving 100 mg of each sample at room temperature (23 to 25° C.) were measured. For dissolving the sample, a 50 mL polypropylene conical tube (manufactured by CORNING Inc.) was used, and dissolution was carried out by stirring with a shaker (trade name: Vortex G-56; manufactured by Scientific Ind. Inc.) for 1 minute."}, "[2]": {"assay": "Test Example 3: ultraviolet irradiation test (absorption spectra for different irradiation times)", "format": "physicochemical", "conditions": "conclusion for the compounds", "source_text": "Ointments (samples B, C, D and E) prepared in Test Example 1 were interposed between two pieces of synthetic quartz plates to prepare measurement samples.\nFrom a light radiated from a 500 W ultra-high pressure mercury vapor lamp (trade name: USH-500D; manufactured by Ushio Inc.), the visible light was removed through a water filter of 5 cm and an ultraviolet transmitting and visible light-absorbing filter (trade name: UV-D33S; manufactured by AGC Techno Glass Co., Ltd.). Then, each measurement sample was irradiated with ultraviolet rays mostly in the UVA and the UVB ranges. Ultraviolet rays irradiation time was set at 0, 5, 10, 15, 20, 25 and 30 minutes. The results of the test are shown in the ultraviolet absorption spectra of FIG. 4 to FIG. 7."}}}
{"smiles": "COc1ccc(/C=C/C(=O)Oc2ccccc2C)cc1", "note": "[Example 1, O-tolyl-4-methoxycinnamate]", "values": [{"measurement": "melting point", "result": "93 to 94", "unit": "°C"}, {"measurement": "Amount of solvent required to dissolve 100 mg of sample", "setting": "[1]; Acetone", "result": "< 1", "unit": "mL"}, {"measurement": "Concentration on dissolving 100 mg of sample", "setting": "[1]; Acetone", "result": "(>10)"}, {"measurement": "Amount of solvent required to dissolve 100 mg of sample", "setting": "[1]; Ethanol", "result": 10, "unit": "mL"}, {"measurement": "Concentration on dissolving 100 mg of sample", "setting": "[1]; Ethanol", "result": "(1)"}, {"measurement": "Amount of solvent required to dissolve 100 mg of sample", "setting": "[1]; Ether", "result": 3, "unit": "mL"}, {"measurement": "Concentration on dissolving 100 mg of sample", "setting": "[1]; Ether", "result": "(3.3)"}, {"measurement": "Amount of solvent required to dissolve 100 mg of sample", "setting": "[1]; Ethyl acetate", "result": "< 1", "unit": "mL"}, {"measurement": "Concentration on dissolving 100 mg of sample", "setting": "[1]; Ethyl acetate", "result": "(>10)"}, {"measurement": "Amount of solvent required to dissolve 100 mg of sample", "setting": "[1]; Isopropyl alcohol", "result": 15, "unit": "mL"}, {"measurement": "Concentration on dissolving 100 mg of sample", "setting": "[1]; Isopropyl alcohol", "result": "(0.67)"}, {"measurement": "Amount of solvent required to dissolve 100 mg of sample", "setting": "[1]; Methanol", "result": 7.5, "unit": "mL"}, {"measurement": "Concentration on dissolving 100 mg of sample", "setting": "[1]; Methanol", "result": "(1.3)"}, {"measurement": "Amount of solvent required to dissolve 100 mg of sample", "setting": "[1]; N-methylpyrrolidone", "result": "< 1", "unit": "mL"}, {"measurement": "Concentration on dissolving 100 mg of sample", "setting": "[1]; N-methylpyrrolidone", "result": "(>10)"}, {"measurement": "Solubility in organic solvents compared with Reference Example 2", "setting": "[1]; almost all the organic solvents tested", "result": "better solubility than that of the compound of Reference Example 2"}, {"measurement": "Ultraviolet absorptive capacity (absorption strength) under ultraviolet irradiation in the UVA and the UVB ranges", "setting": "[2]", "result": "increases further"}]}
{"smiles": "CCOc1ccc(/C=C/C(=O)Oc2ccccc2C)cc1", "note": "[Example 2, O-tolyl-4-ethoxycinnamate]", "values": [{"measurement": "melting point", "result": "108 to 109", "unit": "°C"}, {"measurement": "Ultraviolet absorptive capacity (absorption strength) under ultraviolet irradiation in the UVA and the UVB ranges", "setting": "[2]", "result": "increases further"}]}
{"smiles": "CCCCC(CC)COC(=O)C=Cc1ccc(OC)cc1", "note": "(stereo not drawn) [Reference Example 1, 4-methoxycinnamic acid-2-ethylhexyl, reference compound]", "values": [{"measurement": "Ultraviolet absorptive capacity (absorption strength) under ultraviolet irradiation in the UVA and the UVB ranges", "setting": "[2]", "result": "decreases or remains the same"}]}
{"smiles": "COc1ccc(C(=O)CC(=O)c2ccc(C(C)(C)C)cc2)cc1", "note": "[Reference Example 2, 4-tert-butyl-4′-methoxy-dibenzoylmethane, reference compound]", "values": [{"measurement": "Ultraviolet absorptive capacity (absorption strength) under ultraviolet irradiation in the UVA and the UVB ranges", "setting": "[2]", "result": "decreases or remains the same"}]}
